# Measured values as given in patent publication US20100113332A1, “METHOD OF TREATING AN INFLAMMATORY DISEASE BY DOUBLE STRANDED RIBONUCLEIC ACID” (NASTECH PHARMACEUTICAL COMPANY INC., priority 2004, published 2010).
# Columns and labels:
# TNF-α = assay: mouse LPS response, TNF-α in blood; format: in vivo; details: 2 mg/kg siRNA, with or without PN73; vs negative controls
# Method: Normal [mouse type] mice were treated with various concentrations of LPS by intraperitoneal or intravenous injections. LPS responsiveness was determined by measuring levels of TNF-α in blood that was sampled various times following the LPS injection. A linear range of TNF-α induction was found between 10 ng and 100 ng for LPS injection by IP administration and up to 25 ng by IV injection. The average time for maximal TNF-α induction is 70 minutes following LPS injection.
# The LPS induction was performed 24 hr following the last siRNA injection, 0.2 ug LPS and blood was collected at 90 minutes following LPS injection.
# Three studies of 30 animals each dosing by the following schedules: 4 consecutive days; 8 consecutive days; and 11 consecutive days. LPS induction was performed at 24 hr post siRNA injection, 25 ng LPS (IP). Blood was drawn 70 minutes following LPS injection. […] Results from measurements and 8 and 11 days gave variable results owing to technical problems partly arising from repeated tail injections.
# TNF-α mRNA = assay: TNF-α knockdown in human monocytes (branch DNA);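 for all read-outs here: LPS-activated human CD14+ monocytes, TNF-α mRNA read by branched DNA assay and normalized to cypB mRNA, knockdown compared with random-sequence Qneg siRNA as negative control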; details: for TNF-α knockdown activity (FIG. 6-C): absence of PN73; for TNF-α knockdown activity (FIG. 6-C) / decrease in TNF-α gene expression relative to Qneg control (FIG. 6-B): 0-2.5 nM; for decrease in TNF-α gene expression relative to Qneg control (FIG. 6-B): siRNA complexed with PN73 1:1
# From the text: For mRNA measurement, branch DNA technology from Genospectra (CA) was used according to manufacturer's specification. Human monocytes (CD14+) treated with LPS induce TNF-α-specific mRNA within approximately 2 hrs, followed by peak levels of TNF-α protein 2 hrs later. siRNAs were screened for knockdown activity by transfecting monocytes with siRNA candidate sequences using Lipofectamine 2000, treating infected cells with LPS, and measuring TNF-α mRNA levels approximately 16 hrs later.
# To quantitate mRNA level in the cells, both house keeping gene (cypB) and target gene (TNF-α) mRNA were measured, and the reading for TNF-α was normalized with cypB to obtain relative luminescence unit.
# Qneg represents a random siRNA sequence and functions as the negative control in these experiments.
# [1] = test system: human TNF-α transgenic mice; assay: RA paw score in human TNF-α transgenic mice; details: for RA progression by paw score at week 8 (FIG. 4): siRNA delivered with PN73
# Method: For human TNF-α animal disease models, two transgenic models were used. The tg197 mice were acquired from Pasteur Hellenic Institute (Athens, Greece), and the B6.SJL-Tg(TNF) N21 mice were purchased from Taconic, Inc. (Germantown, N.Y.). The genotypes of both human TNF-α transgenic mouse models were performed by suppliers. […] All treatments were by tail vein injection twice a week. […] A similar dose regimen was used for B6.SJL-Tg(TNF) N21 mice. Clinical scores were based on a previously described scoring system (2, 3) as follows: 0 (normal), 1 (edema or distortion of paw or ankle joints), 2 (distortion of paw and ankle joints), or 3 (ankylosis of wrist or ankle joints). The sum of all four paws was scored twice a week with a maximum score of 12 per mouse.
# For Hellenic transgenic mice, RA scores were determined (blinded to treatment) using the following criteria: 0, normal; 1, edema or distortion of paw or ankle joints; 2 distortion of paw and ankle joints; 3, ankylosis of wrist or ankle joints.
# Human NF-α expressing mice were purchase from the Hellenic Pasture Institute, Greece) at 5 weeks old. […] During the injection periods, plasma samples were collected for ELISA testing (R&D Systems, Cat#SSTA00C), and paw scores were taken twice a week as an accepted index of RA disease progression and therapeutic efficacy (Table 19).
# Due to the difference in the starting point (some animals present with scores at earlier points), the scores have been adjusted to 0 for all animals in the experiments. Each paw is given a score between 0 and 3, with the highest score of 12, according to the following scoring index. • 0: Normal • 1: edema or distortion of paw or ankle joints • 2: distortion of paw and ankle joints • 3: ankylosis of wrist or ankle joints.
# [2] = test system: mouse tail fibroblast (MTF) cells; format: cell-based; details: peptide/siRNA complex
# Method: (§2) Cells were plated the day before so that they were ˜50-80% confluent at time of transfection. For complexes, siRNA and peptide were diluted in Opti-MEM® media (Invitrogen), then mixed and allowed to complex 5-10 minutes before adding to cells washed with PBS. Final concentration of siRNA was 500 nM at each peptide concentration (2-50 μM). The conjugate, also diluted in Opti-MEM® media, was added to cells at final concentrations ranging from 62.5 nM to 500 nM. At 500 nM concentration, we also combined with 20% FBS just before adding to washed cells. Cells were transfected for 3 hours at 37° C., 5% CO2. Cells were washed with PBS, treated with trypsin and then analyzed by flow cytometry. siRNA uptake was measured by intensity of Cy5 fluorescence and cellular viability assessed by addition of propidium iodide.
# The materials and methods used for the experiments performed in 9L/LacZ cells and mouse fibroblast cells are generally the same as described above, except that for the murine experiments, 9L/LacZ cells were replaced with mouse tail fibroblasts.
# 9L/LacZ cells [3] = assay: siRNA uptake by flow cytometry in 9L/LacZ cells; format: cell-based, rat; details: peptide/siRNA complex
# Method: as §2
# Uptake was measured using 9L/lacZ cells transfected as described in Example 2. Cells were washed with PBS, treated with trypsin and then analyzed by flow cytometry. siRNA uptake was measured by intensity of FAM fluorescence and cellular viability assessed by addition of propidium iodide.
# [4] = test system: interferon response markers (IL-1β, INF-α, IL-6, IL-8, IL-12, MIP-1α, IFN-γ, TNF-α); assay: interferon responsiveness, marker protein ELISA; format: cell-based; details: for Relative protein expression level of IFN-γ / Relative protein expression level of IL-12 / Relative protein expression level of INF-α: Lipofectamine transfection; for interferon response (ELISA): regardless of transfection reagent
# Method: (§1) Interferon responsiveness was assayed by ELISA (protein) and bDNA (mRNA levels).
# TNF-α protein = TNF-α protein ELISA in human monocytes; format: cell-based; details: siRNA screen with Lipofectamine 2000, LPS-activated monocytes
# Method: Human monocytes (CD14+) treated with LPS induce TNF-α-specific mRNA within approximately 2 hrs, followed by peak levels of TNF-α protein 2 hrs later. siRNAs were screened for knockdown activity by transfecting monocytes with siRNA candidate sequences using Lipofectamine 2000, treating infected cells with LPS, and measuring TNF-α mRNA levels approximately 16 hrs later.
# To quantitate mRNA level in the cells, both house keeping gene (cypB) and target gene (TNF-α) mRNA were measured, and the reading for TNF-α was normalized with cypB to obtain relative luminescence unit. To quantify protein level, the TNF-α ELISA from BD Bioscience was used according to manufacturer's specification.
# 9L/LacZ cells [5] = assay: beta-galactosidase knockdown assay of siRNA transfection efficiency; format: cell-based, rat; details: Histone H2B plus siRNA
# Method: For H3, H4 and H2b, a series of experiments was performed to complex these polynucleotide delivery-enhancing polypeptides with siRNA in different ratios. Generally this was initiated with a 1:0.01 to 1:50 of siRNA/histone ratio. To each well in a 96-well microtiter plate, 40 pm siRNA was added. Each well contained beta-gal cells at 50% confluency.
# Transfections were performed with either regular siRNA or siRNA complexed with one of the above-identified histone proteins on 9L/beta-gal cells. The siRNA was designed to specifically knock down beta-galactosidase mRNA, and activities are expressed as percentage of beta-gal activities from control (control cells were transfected using lipofectamine without the polynucleotide delivery-enhancing polypeptide).
# For beta-galactosidase assays, 9L/LacZ cells, a cell line constitutively expressing beta-galactosidase, were used. 9L/LacZ cells are rat gliosarcoma fibroblast cells that constitutively express LacZ and were obtained from ATCC (#CRL-2200). […]
# The transfection efficiency inversely correlates with the amount of beta-galactosidase activity measured from the cell lysate. Upon transfection, a measured decrease in beta-galactosidase activity indicates a successful transfection. Thus, in the absence of transfection, the measured beta-galactosidase activity is 100% and the transfection efficiency is 0%. […]
# IL-1β mRNA = assay: interferon responsiveness, IL-1β mRNA (bDNA); format: cell-based; details: siRNA complexed with lipofectamine; 100 nM or 200 nM for TNF-α9
# Method: as §1
# human TNF-α = assay: plasma human TNF-α by ELISA in human TNF-α transgenic mice; format: in vivo, mouse; details: average of the mice
# Method: For determination of TNF-α level, For the analysis of experiments involving transgenic mice, plasma samples were separated from whole blood collected by orbital bleeding. Plasma levels of hTNF-α were determined by ELISA at a 1:2 dilution according to the manufacturer's instructions (R&D systems, Minneapolis, Minn.).
# For Taconic mice, TNF-α levels in plasma were determined by ELISA (R&D systems, Minneapolis, Minn.) and treatment schedules were same as Hellenic transgenic hTNF-αtransgenic mice.
# [6] = siRNA 4 nM complexed with 1.6 uM PN73
# [7] = siRNA 4 nM complexed with 1.6 uM PN509
# [8] = siRNA 20 nM complexed with 0.5 uM PN250
# [9] = siRNA 20 nM complexed with 0.75 uM PN250
# [10] = siRNA 20 nM complexed with 1 uM PN250
substance,measurement,setting,value
AAUCCUCAGCCUCUUCUCCUU (siRNA; chemistry not fully specified) [LC13],circulating TNF-α resulting from LPS induction,TNF-α,lowered amounts of circulating TNF-α
same,TNF-α knockdown activity (FIG. 6-C),TNF-α mRNA,little knockdown activity
same,KD (%) TNF-α,TNF-α mRNA; [6],48.29%
same,KD (%) TNF-α,TNF-α mRNA; [7],25.04%
same,KD (%) TNF-α,TNF-α mRNA; [8],20.65%
same,KD (%) TNF-α,TNF-α mRNA; [9],18.04%
same,KD (%) TNF-α,TNF-α mRNA; [10],31.35%
same,decrease in TNF-α gene expression relative to Qneg control (FIG. 6-B),TNF-α mRNA,~15%
same,"Relative effect of siRNA, paw score",[1]; group TNF #4,Overall low paw score
AAVALLPAVLLALLAPRKKRRQRRRPPQC [PN27],Percent Uptake Primary MTF Cells,[2],61%
same,Percent Uptake LacZ Cells,9L/LacZ cells [3],86%
C(YGRKKRRQRRRG)2 [PN204],Percent Uptake LacZ Cells,9L/LacZ cells [3],83%
CCGACUCAGCGCUGAGAUCAA (siRNA; chemistry not fully specified) [LC17],Relative protein expression level of IFN-γ,[4],Background
same,Relative protein expression level of IL-12,[4],Background
same,Relative protein expression level of INF-α,[4],Background
same,interferon response (ELISA),[4],no interferon response
same,KD (%) TNF-α,TNF-α mRNA; [6],50.78%
same,KD (%) TNF-α,TNF-α mRNA; [7],48.94%
same,"Relative effect of siRNA, paw score",[1]; group TNF #6,Overall low paw score. YC12
GCCUGUACCUCAUCUACUC (siRNA; chemistry not fully specified) [YC12],KD (%) TNF-α,TNF-α mRNA; [6],43.60%
same,KD (%) TNF-α,TNF-α mRNA; [7],64.37%
same,KD (%) TNF-α,TNF-α mRNA; [8],17.06%
same,KD (%) TNF-α,TNF-α mRNA; [9],21.66%
same,KD (%) TNF-α,TNF-α mRNA; [10],15.91%
same,"Relative effect of siRNA, paw score",[1]; group TNF #6,Overall low paw score. YC12
GCCUGUAGCCCAUGUUGUA (chemistry not given here) [TNF-α-2],RA progression by paw score at week 8 (FIG. 4),[1],delayed RA progression
GCGUGGAGCUGAGAGAUAA (chemistry not given here) [TNF-α-1],TNF-α mRNA knockdown,"TNF-α mRNA; siRNA screen with Lipofectamine 2000, LPS-activated monocytes",50%
same,reduction in TNF-α protein level,TNF-α protein,75%
"GCGUGGAGCUGAGAGAUAA (siRNA; delivered as complex with delivery-enhancing peptide, further chemistry not given here) [YC11]",KD (%) TNF-α,TNF-α mRNA; [8],13.70%
same,KD (%) TNF-α,TNF-α mRNA; [9],21.09%
same,KD (%) TNF-α,TNF-α mRNA; [10],33.10%
Histone H2B,measured beta-galactosidase activity,9L/LacZ cells [5],37.97%
NH2-LLETLLKPFQCRICMRNFSTRQARRNHRRRHRR-amide (H-LLETLLKPFQCRICMRNFSTRQARRNHRRRHRR-NH2; cysteine pairing not given here) [PN202],Percent Uptake LacZ Cells,9L/LacZ cells [3],71%
NH2-RKKRRQRRRPPQCAAVALLPAVLLALLAP-amide (H-RKKRRQRRRPPQCAAVALLPAVLLALLAP-NH2) [PN28],Percent Uptake Primary MTF Cells,[2],81%
same,Percent Uptake LacZ Cells,9L/LacZ cells [3],79%
"UAGCCCAUGUUGUAGCAAA (siRNA; delivered with peptide PN73, further chemistry not given here) [TNF-α9]",Relative protein expression level of IFN-γ,[4],Background
same,Relative protein expression level of IL-12,[4],Background
same,Relative protein expression level of INF-α,[4],Background
same,"IL-1β, IL-6 and MIP-1α protein expression levels",[4]; transfection with lipofectamine,increase
same,IL-1β mRNA levels,IL-1β mRNA,significant increase
same,"Relative effect of siRNA, effectiveness relative to Ramicade by week 8",[1]; group TNF #7,LC20 and TNF-α9 are more
same,RA progression by paw score at week 8 (FIG. 4),[1],delayed RA progression
UAGGGUCGGAACCCAAGCUUA [LC20],Relative protein expression level of IFN-γ,[4],Background
same,Relative protein expression level of IL-12,[4],Background
same,Relative protein expression level of INF-α,[4],Background
same,interferon response (ELISA),[4],no interferon response
same,TNF-α knockdown activity (FIG. 6-C),TNF-α mRNA,little knockdown activity
same,KD (%) TNF-α,TNF-α mRNA; [6],42.68%
same,KD (%) TNF-α,TNF-α mRNA; [7],71.12%
same,KD (%) TNF-α,TNF-α mRNA; [8],−3.80%
same,KD (%) TNF-α,TNF-α mRNA; [9],10.72%
same,KD (%) TNF-α,TNF-α mRNA; [10],26.53%
same,decrease in TNF-α gene expression relative to Qneg control (FIG. 6-B),TNF-α mRNA,~30%
same,delay in RA progression relative to lower doses,"[1]; 2 mg/kg LC20, PN73 1:5",greatest relative observed delay in RA progression
same,"Relative effect of siRNA, effectiveness relative to Ramicade","[1]; group TNF #1 (LC20, Ramicade, PBS)",LC20 is as effective as
same,"Relative effect of siRNA, paw score",[1]; group TNF #4,Overall low paw score
same,"Relative effect of siRNA, paw score",[1]; group TNF #6,Overall low paw score. YC12
same,"Relative effect of siRNA, effectiveness relative to Ramicade by week 8",[1]; group TNF #7,LC20 and TNF-α9 are more
same,"Relative effect of siRNA, effectiveness relative to Ramicade by week 11",[1]; group TNF #7,week 8; LC20 is equally
same,RA progression by paw score at week 8 (FIG. 4),[1],delayed RA progression
infliximab [Ramicade],RA score (paw and joint inflammation),"[1]; twice weekly from age 6 weeks, effect beginning at age 7 weeks",RA score stabilization
same,Quantity of TNF-α protein in blood plasma by ELISA,human TNF-α; age 7 weeks,102.24 pg/mL
same,Quantity of TNF-α protein in blood plasma by ELISA,human TNF-α; age 8 weeks,39.27 pg/mL
same,Quantity of TNF-α protein in blood plasma by ELISA,human TNF-α; age 9 weeks,25.80 pg/mL
